Values belong to the compound of their own block, whether it stands above or below them.
Tests used:
[1] = test system: human coronary artery smooth muscle cells; assay: Anti-proliferative activity in non-synchronized cultured human coronary artery smooth muscle cells stimulated with two percent fetal bovine serum; assay type: cell-based; conditions: agent added to cells treated with rapamycin
Description: The multiple curves represent various concentrations of mycophenolic acid ranging from zero to one thousand nanomolar concentrations.
FIG. 58 illustrates, in graphical format, the anti-proliferative activity of cladribine in non-synchronized cultured human coronary artery smooth muscle cells stimulated with two percent fetal bovine serum.
The multiple curves represent various concentrations of cladribine ranging from zero to nine hundred nanomolar concentrations.

[2] = Description: The concentrations are determined by liquid chromatography and are presented as weight by volume figures.
In making the first formulation, 100 mg of paclitaxel is added to 400 μl of ethanol in a pre-weighed 20 ml scintillation vial. The mixture of paclitaxel and ethanol is vortexed and heated in a 60 degree C. bath for ten minutes. Once the drug is completely solubilized, 20 ml of PEG 400 is then added to make the final paclitaxel concentration 5 mg/ml. […] In a separate experiment, a series of 20 ml scintillation vials containing Vitamin E TPGS are heated or warmed up in a 50 degree C. water bath for ten minutes. Concurrently, distilled water is also warmed in a 50 degree C. water bath. Once the Vitamin E TPGS was melted in each vial, the distilled water is added into the Vitamin E TPGS vials and vortexed for one minute and left to stand in the water bath for two hours. The final concentrations of Vitamin E TPGS in water were one, five and fifteen percent. The paclitaxel stock solution (5 mg/ml) described herein was then mixed with the Vitamin E TPGS solutions to make the final paclitaxel formulations.

[3] = Cell viability assay (cytotoxicity); assay type: cell-based
Description: (§1) The multiple curves represent various concentrations of topotecan ranging from zero to three hundred nanomolar concentrations.
(§2) The multiple curves represent various concentrations of etoposide ranging from zero to eight hundred nanomolar concentrations.

[4] = test system: human coronary artery smooth muscle cells; assay: Anti-proliferative activity in synchronized cultured human coronary artery smooth muscle cells stimulated with two percent fetal bovine serum; assay type: cell-based; conditions: for effect of the added agent on the anti-proliferative rapamycin dose response curve: agent added to cells treated with rapamycin
Description: as §1, §2
The multiple curves represent various concentrations of Panzem® ranging from zero to 100 micromolar concentrations.

[5] = test system: human coronary artery smooth muscle cell; assay: MTS assay of Panzem®; assay type: cell-based; conditions: concentrations up to 30,000.00 nanomolar
Description: Typically, a control is utilized to determine baseline toxicity.

[6] = Porcine drug elution PK study of the dual drug eluting coating; assay type: in vivo; conditions: after eight (8) days of implantation; single-layer configuration of FIG. 83
Description: Another critical parameter for the performance of the thrombus resistance of a device coated with cilostazol is the duration of the drug release from the coating. This is of particular significance in the two weeks after device implantation. In the porcine drug elution PK studies of the dual drug eluting coating, both cilostazol and sirolius were slowly released from the coating, resulting in a sustained drug release profile. The purpose of the porcine PK study is to assess the local pharmacokinetics of a drug eluting stent at a given implantation time. Normally three stents are implanted in three different coronary arteries in a pig for a given time point and then retrieved for total drug recovery analysis. The stents are retrieved at predetermined time points; namely, 1, 3 and 8 days. The stents are extracted and the total amount of drug remaining on the stents is determined by analysis utilizing HPLC (high performance liquid chromatography) for total drug amount. The difference between the original amount of drug on the stent and the amount of drug retrieved at a given time represents the amount of drug released in that period. The continuous release of drug into surrounding arterial tissue is what prevents the neointimal growth and restenosis in the coronary artery. A normal plot represents the percentage of total drug released (%, y-axis) vs. time of implantation (day, x-axis). […]

[7] = Drug concentration in liquid formulations (liquid chromatography, HPLC assay); assay type: physicochemical
tumor cell lines = conditions: Woo et al. 2002; cited from earlier work
[8] = test system: human coronary artery smooth muscle cell; assay: Inhibition of human coronary artery smooth muscle cell proliferation by trichostatin A, cell culture; assay type: cell-based; conditions: in vitro cell culture; read-out: anti-proliferative IC50
Description: FIG. 51 is a graph of the inhibition of coronary artery smooth muscle cells by trichostatin A in a cell culture study.

[9] = In vitro release of sirolimus and cilostazol from stent coating; assay type: physicochemical; conditions: single-layer configuration of FIG. 83
[10] = test system: human coronary artery smooth muscle cells; assay: Antiproliferative effects of PX867 on cultured human coronary artery smooth muscle cells; assay type: cell-based
Description: A PI3 kinase inhibitor can affect restinosis when administered by local or systemic delivery alone or in combination with sirolimus. FIGS. 87 and 88 illustrate the antiproliferative effects of PX867 on cultured human coronary artery smooth muscle cells alone (FIG. 87) or in combination with sirolimus (FIG. 88). […] Curve 8702 illustrates the percent inhibition for various concentrations. In FIG. 88, the six curves 8802, 8804, 8806, 8808, 8810 and 8812 represent various concentrations of PX867 with various concentrations of sirolimus. […] More specifically, curve 8812 illustrates the percent inhibition for a 240 nM PX-867 concentration. […] This may be compared to curve 8804 which represents a 15 nM PX-867 concentration. As one can see, the percent inhibition increases as the concentration of sirolimus increases. Accordingly, a potent PI3 kinase inhibitor, such as PX-867, can improve the inhibition of coronary artery smooth muscle cell proliferation either as a stand alone treatment or via combination with another restenotic agent, such as sirolimus.

Structure (SMILES): Nc1nc(Cl)nc2c1ncn2[C@H]1C[C@H](O)[C@@H](CO)O1 [Cladribine, 2-chlorodeoxyadenosine]
effect of the added agent on the anti-proliferative rapamycin dose response curve [1]: potentiate the anti-proliferative activity of rapamycin

Structure (SMILES): COc1c(C)c2c(c(O)c1C/C=C(\C)CCC(=O)O)C(=O)OC2 [mycophenolic acid]
effect of the added agent on the anti-proliferative rapamycin dose response curve [1]: potentiates the anti-proliferative activity of rapamycin

concentration of paclitaxel in a true liquid formulation [2]: up to 2.5 mg/ml
concentration relative to the solubility of paclitaxel in water [2]: about 1000 fold
Structure (SMILES): CC(=O)O[C@H]1C(=O)[C@@]2(C)[C@H]([C@H](OC(=O)c3ccccc3)[C@]3(O)C[C@H](OC(=O)[C@H](O)[C@@H](NC(=O)c4ccccc4)c4ccccc4)C(C)=C1C3(C)C)[C@]1(OC(C)=O)CO[C@@H]1C[C@@H]2O [paclitaxel]

Structure (SMILES): COc1cc([C@@H]2c3cc4c(cc3[C@@H](O[C@@H]3O[C@@H]5CO[C@@H](C)O[C@H]5[C@H](O)[C@H]3O)[C@H]3COC(=O)[C@H]23)OCO4)cc(OC)c1O [etoposide]
effect of the added agent on the anti-proliferative rapamycin dose response curve [1]: potentiate the anti-proliferative activity of rapamycin
cytotoxicity in cell viability assay ([3]; at concentrations up to ten micromolar): non-cytotoxic

Structure (SMILES): CC[C@@]1(O)C(=O)OCc2c1cc1n(c2=O)Cc2cc3c(CN(C)C)c(O)ccc3nc2-1 [topotecan]
effect of the added agent on the anti-proliferative rapamycin dose response curve [4]: potentiate the anti-proliferative activity of rapamycin
cytotoxicity in cell viability assay ([3]; at concentrations up to one micromolar): non-cytotoxic

Structure (SMILES): COc1cc2c(cc1O)CC[C@@H]1[C@@H]2CC[C@]2(C)[C@@H](O)CC[C@@H]12 [Panzem®, 2-methoxyestradiol]
effect of the added agent on the anti-proliferative rapamycin dose response curve [4]: increases the percent of inhibition of rapamycin alone
inhibition of human coronary artery smooth muscle cell proliferation in vitro ([4]; agent alone): extremely effective inhibitor
human coronary artery smooth muscle cell survival (MTS assay) [5]: do not reduce human coronary artery smooth muscle cell survival

drug remaining in the drug coating [6]: ~80%
Structure (SMILES): CO[C@H]1C[C@@H]2CC[C@@H](C)[C@@](O)(O2)C(=O)C(=O)N2CCCC[C@H]2C(=O)O[C@H]([C@H](C)C[C@@H]2CC[C@@H](O)[C@H](OC)C2)CC(=O)[C@H](C)/C=C(\C)[C@@H](O)[C@@H](OC)C(=O)[C@H](C)C[C@H](C)/C=C/C=C/C=C/1C [rapamycin]
concentration relative to the solubility of sirolimus in water ([7]; 4 mg/ml liquid formulation with PEG 200): about four hundred to about one thousand times higher

Structure (SMILES): CC(/C=C/C(=O)NO)=C\[C@@H](C)C(=O)c1ccc(N(C)C)cc1 [trichostatin A]
anti-proliferative IC50's (tumor cell lines): low nM range
IC50 [8]: ~6 nM

Structure (SMILES): O=C1CCc2cc(OCCCCc3nnnn3C3CCCCC3)ccc2N1 [cilostazol, 6[4-(1-cyclohexyl-1H-tetrazol-5-yl)-butoxy]-3,4-dihydro-2-(1H)-quinolinone]
drug remaining in the drug coating [6]: ~80%
in vitro release from the coating [9]: ~35%

Structure (SMILES): COC[C@H]1OC(=O)/C(=C\N2CCCC2)C2=C(O)C(=O)C3=C([C@H](OC(C)=O)C[C@]4(C)C(=O)CC[C@@H]34)[C@]21C [PX-867]
inhibition of coronary artery smooth muscle cell proliferation ([10]; PX867 alone, concentration of about 10^−6): close to one hundred percent inhibition
combination effect with sirolimus on percent inhibition ([10]; PX-867 15-240 nM with various concentrations of sirolimus): strong synergistic effect between PX-867 and sirolimus

concentration in the final solution (HPLC assay) ([7]; ethanol, Vitamin E TPGS and water, ethanol less than two percent): 15000 µg/mL
Structure (SMILES): CO[C@H]1C[C@@H]2CC[C@@H](C)[C@@](O)(O2)C(=O)C(=O)N2CCCC[C@H]2C(=O)O[C@H]([C@H](C)C[C@@H]2CC[C@@H](OC(=O)C(C)(CO)CO)[C@H](OC)C2)CC(=O)[C@H](C)/C=C(\C)[C@@H](O)[C@@H](OC)C(=O)[C@H](C)C[C@H](C)/C=C/C=C/C=C/1C [CCI-779]
